Measurements reported in patent publication US20200288710A1, “SUBSTITUTED SULPHONAMIDES FOR CONTROLLING ANIMAL PESTS” (BAYER CROPSCIENCE AKTIENGESELLSCHAFT, priority 2016, published 2020).
Like-named read-outs stand apart in the source and are kept apart here.

Key:
[1] = log P by HPLC on reversed-phase column (EEC Directive 79/831 Annex V.A8); format: physicochemical; settings: reversed-phase HPLC column (C18)
Method: The log P values were determined according to EEC Directive 79/831 Annex V.A8 by HPLC (highperformance liquid chromatography) on a reversed-phase column (C18). Temperature 43° C. The calibration is effected with unbranched alkan-2-ones (having 3 to 16 carbon atoms), for which the log P values are known. The determination of the M^+ by LC-MS in the acidic range was carried out at pH 2.7 using the mobile phases 0.1% aqueous formic acid and acetonitrile (contains 0.1% formic acid); linear gradient from 10% acetonitrile to 95% acetonitrile, instrument: Agilent 1100 LC system, Agilent MSD system, HTS PAL. The determination of the M^+ by LC-MS in the neutral range was carried out at pH 7.8 using the mobile phases 0.001 molar aqueous ammonium bicarbonate solution and acetonitrile; linear gradient from 10% acetonitrile to 95% acetonitrile. The log P values for the acidic range (as log P [a]) and/or for the neutral range (as log P [n]) were stated in the tables and preparation examples.

Tetranychus urticae = Tetranychus urticae spray test, OP-resistant; format: in vivo; settings: foliar, 144 h, bean leaf discs, after 6 days, read-out: efficacy
Method: Tetranychus urticae—Spray Test, OP-Resistant
To produce a suitable preparation of active compound, 1 part by weight of active compound is dissolved using the specified parts by weight of solvent and made up with water containing an emulsifier concentration of 1000 ppm until the desired concentration is attained. To produce further test concentrations, the formulation is diluted with emulsifier-containing water.
Discs of bean leaves (Phaseolus vulgaris) infested with all stages of the greenhouse red spider mite (Tetranychus urticae) are sprayed with an active compound preparation of the desired concentration.
After 6 days, the efficacy in % is determined. 100% means that all the spider mites have been killed; 0% means that no spider mites have been killed.

Meloidogyne incognita = Meloidogyne incognita test; format: in vivo; settings: 336 h, lettuce, after 14 days, read-out: nematicidal efficacy (formation of galls)
Summary of the method: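 Active compound in acetone, diluted with water, added to sand-filled vessels with M. incognita eggs/larvae and lettuce seeds. After 14 days, efficacy scored by root gall formation: 100% = no galls, 0% = galls equal to untreated control.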

Myzus persicae [2] = assay: Myzus persicae spray test (Chinese cabbage leaf discs); format: in vivo; settings: foliar, 120 h, after 5-6 days, read-out: efficacy
Summary of the method: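 Chinese cabbage leaf discs infested with all stages of green peach aphid were sprayed with compound formulated in acetone/DMF and emulsifier-containing water. Efficacy in % was scored after 5-6 days, with 100% meaning all aphids killed and 0% none killed.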

Phaedon cochleariae = Phaedon cochleariae spray test; format: in vivo; settings: foliar, 168 h, Chinese cabbage leaf discs, larvae, after 7 days, read-out: efficacy
Summary of the method: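 Compound dissolved in solvent and diluted with water containing 1000 ppm emulsifier to test concentrations. Efficacy read after 7 days as % beetle larvae killed (100% all killed, 0% none).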

Myzus persicae [3] = assay: Myzus persicae oral test; format: in vivo; settings: 120 h, oral uptake, after 5 days, read-out: efficacy
Summary of the method: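 Compound dissolved in acetone, diluted in water, then mixed 50:150 μl with IPL41 insect medium (33%+15% sugar). Mixed-population green peach aphids feed through a parafilm seal on the solution; mortality scored as % efficacy after 5 days (100% = all killed).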

Lucilia cuprina = Lucilia cuprina test; format: in vivo; settings: 48 h, L1 larvae, after 2 days, read-out: efficacy (kill in %)
Method: Lucilia cuprina Test Solvent: dimethyl sulphoxide To produce a suitable preparation of active compound, 10 mg of active compound are mixed with 0.5 ml of dimethyl sulphoxide, and the concentrate is diluted with water to the desired concentration. About 20 L1 larvae of the Australian sheep blowfly (Lucilia cuprina) are transferred into a test vessel containing minced horsemeat and the active compound preparation of the desired concentration. After 2 days, the kill in % is determined. 100% means that all the larvae have been killed; 0% means that no larvae have been killed.

[4] = acidic range, pH 2.7, HPLC C18, 43° C., read-out: log P (acidic)
[5] = neutral range, pH 7.8, HPLC C18, 43° C., read-out: log P (neutral)

SMILES	pest or weed control at 500 g/ha (Tetranychus urticae)	pest or weed control at 20 ppm (Meloidogyne incognita)	pest or weed control at 500 g/ha (Myzus persicae [2])	also measured
COc1cc(C(=O)O)nn1-c1ccccc1Cl [1-(2-chlorophenyl)-5-methoxy-1H-pyrazole-3-carboxylic acid]				chromatographic logP [1, 4]: 1.63
Cc1c(C(=O)O)nc(-c2c(F)cccc2F)n1C [2-(2,6-difluorophenyl)-1,5-dimethyl-1H-imidazole-4-carboxylic acid]				chromatographic logP [1, 5]: 2
Cn1cc(C(=O)O)nc1-c1c(F)cccc1F [2-(2,6-difluorophenyl)-1-methyl-1H-imidazole-4-carboxylic acid]				chromatographic logP [1, 5]: 2.3
Cn1c(C(=O)O)cnc1-c1c(F)cccc1F [2-(2,6-difluorophenyl)-1-methyl-1H-imidazole-5-carboxylic acid]				chromatographic logP [1, 4]: 0.46
CCc1[nH]c(-c2c(F)cccc2F)nc1C(=O)O [2-(2,6-difluorophenyl)-5-ethyl-1H-imidazole-4-carboxylic acid]				chromatographic logP [1, 5]: 0.45
Cc1ccccc1S(=O)(=O)NC(=O)c1nc(-c2ccccc2Cl)n(C)c1Cl [5-chloro-2-(2-chlorophenyl)-1-methyl-N-[(2-methylphenyl)sulphonyl]-1 Himidazole-4-carboxamide]				chromatographic logP [1, 4]: 3.17
CCOC(=O)c1nc(Br)n(C)c1C [Ethyl 2-Bromo-1,5-Dimethyl-1H-Imidazole-4-Carboxylate]				chromatographic logP [1, 5]: 1.69
Cn1cc(C(=O)NS(=O)(=O)c2ccc(Cl)cc2)nc1-c1c(F)cccc1F [Example 46]	90%	100%	90%	
CCn1cc(C(=O)NS(=O)(=O)CC)nc1-c1ccccc1Cl [Example 78]	90%	90%	90%	
CCS(=O)(=O)NC(=O)c1cn(C)c(-c2c(Cl)cccc2Cl)n1 [Example 82]	90%	90%	90%	
COc1ccc(Cl)c(S(=O)(=O)NC(=O)c2cn(C)c(-c3c(Cl)cccc3Cl)n2)c1 [Example 101]	90%	90%	90%	pest or weed control at 500 g/ha (Phaedon cochleariae): 100%; pest or weed control at 20 ppm (Myzus persicae [3]): 100%; pest or weed control at 100 ppm (Lucilia cuprina): 100%
COc1ccc(Cl)c(S(=O)(=O)NC(=O)c2nc(-c3ccccc3Cl)n(C)c2C)c1 [Example 104]	90%	90%		pest or weed control at 500 g/ha (Phaedon cochleariae): 100%; pest or weed control at 20 ppm (Myzus persicae [3]): 100%
Cn1cc(C(=O)NS(=O)(=O)c2cccc(Cl)c2Cl)nc1-c1c(F)cccc1F [Example 173]	90%	100%	100%	pest or weed control at 20 ppm (Myzus persicae [3]): 100%
Cc1ccsc1S(=O)(=O)NC(=O)c1cn(C)c(-c2ccccc2Cl)n1 [Example 212]	90%	90%	100%	pest or weed control at 20 ppm (Myzus persicae [3]): 100%
Cc1cc(S(=O)(=O)NC(=O)c2cn(C)c(-c3ccccc3Cl)n2)c(C)s1 [Example 217]	100%	90%	90%	pest or weed control at 500 g/ha (Phaedon cochleariae): 83%; pest or weed control at 20 ppm (Myzus persicae [3]): 100%
Cc1cc(C(=O)NS(=O)(=O)c2ccccc2Cl)nn1-c1ccccc1C(F)(F)F [Example 291]	90%	90%		
Cc1cc(C(=O)NS(=O)(=O)c2cc(Cl)ccc2Br)nn1-c1ccccc1C(F)(F)F [Example 293]	100%	90%		
Cn1cc(C(=O)NS(=O)(=O)c2cccc(Cl)c2F)nc1-c1c(F)cccc1F [Example 315]	90%	100%	100%	pest or weed control at 20 ppm (Myzus persicae [3]): 100%
Cc1c(F)cccc1S(=O)(=O)NC(=O)c1cn(C)c(-c2c(F)cccc2F)n1 [Example 318]	90%	90%	100%	pest or weed control at 500 g/ha (Phaedon cochleariae): 100%; pest or weed control at 20 ppm (Myzus persicae [3]): 100%

SMILES	pest or weed control at 500 g/ha (Tetranychus urticae)	pest or weed control at 20 ppm (Meloidogyne incognita)	pest or weed control at 500 g/ha (Myzus persicae [2])	also measured
Cc1ccc(S(=O)(=O)NC(=O)c2cn(C)c(-c3c(F)cccc3F)n2)s1 [Example 351]	90%	90%		pest or weed control at 100 g/ha (Myzus persicae [2]; 100 g/ha): 90%
COc1ccc(Cl)c(S(=O)(=O)NC(=O)c2nc(-c3c(F)cccc3F)nn2C)c1 [Example 406]	90%	90%		
Cn1nc(-c2c(F)cccc2F)nc1C(=O)NS(=O)(=O)c1ccccc1Cl [Example 407]	90%	90%		
Cn1cc(C(=O)NS(=O)(=O)c2ccccc2Cl)nc1-c1cnccc1Cl [Example 495]	90%	90%		
Cn1cc(C(=O)NS(=O)(=O)c2c(Cl)cccc2Cl)nc1-c1cccc(Cl)c1Cl [Example 568]	90%	90%	100%	pest or weed control at 500 g/ha (Phaedon cochleariae): 83%; pest or weed control at 20 ppm (Myzus persicae [3]): 100%
Cc1ccsc1S(=O)(=O)NC(=O)c1cn(C)c(-c2ncccc2F)n1 [Example 573]	90%		90%	pest or weed control at 20 ppm (Myzus persicae [3]): 100%
COc1ccc(C)c(S(=O)(=O)NC(=O)c2cn(C)c(-c3ncccc3Cl)n2)c1 [Example 582]	90%	90%	100%	pest or weed control at 500 g/ha (Phaedon cochleariae): 83%; pest or weed control at 4 ppm (Myzus persicae [3]; 4 ppm): 100%
CCOC(=O)c1ncn(C)c1C [ethyl 1,5-dimethyl-1H-imidazole-4-carboxylate]				chromatographic logP [1, 5]: 0.85
CCOC(=O)c1cc(O)n(-c2ccccc2Cl)n1 [ethyl 1-(2-chlorophenyl)-5-hydroxy-1H-pyrazole-3-carboxylate]				chromatographic logP [1, 4]: 1.75
CCOC(=O)c1cc(OC)n(-c2ccccc2Cl)n1 [ethyl 1-(2-chlorophenyl)-5-methoxy-1H-pyrazole-3-carboxylate]				chromatographic logP [1, 4]: 2.61
CCOC(=O)c1nc(-c2c(F)cccc2F)n(C)c1C [ethyl 2-(2,6-difluorophenyl)-1,5-dimethyl-1H-imidazole-4-carboxylate]				chromatographic logP [1, 5]: 2
CCOC(=O)c1nc(-c2c(F)cccc2F)[nH]c1CC [ethyl 2-(2,6-difluorophenyl)-5-ethyl-1H-imidazole-4-carboxylate]				chromatographic logP [1, 4]: 1.73
Cn1cnc(C(=O)OC(C)(C)C)c1 [tert-butyl 1-methyl-1H-imidazole-4-carboxylate]				chromatographic logP [1, 4]: 0.63
Cn1cncc1C(=O)OC(C)(C)C [tert-butyl 1-methyl-1H-imidazole-5-carboxylate]				chromatographic logP [1, 5]: 1.71
Cn1cc(C(=O)OC(C)(C)C)nc1-c1c(F)cccc1F [tert-butyl 2-(2,6-difluorophenyl)-1-methyl-1H-imidazole-4-carboxylate]				chromatographic logP [1, 5]: 2.3
Cn1c(C(=O)OC(C)(C)C)cnc1-c1c(F)cccc1F [tert-butyl 2-(2,6-difluorophenyl)-1-methyl-1H-imidazole-5-carboxylate]				chromatographic logP [1, 5]: 3
Cn1cc(C(=O)OC(C)(C)C)nc1Br [tert-butyl 2-bromo-1-methyl-1H-imidazole-4-carboxylate]				chromatographic logP [1, 4]: 2.41
Cn1c(C(=O)OC(C)(C)C)cnc1Br [tert-butyl 2-bromo-1-methyl-1H-imidazole-5-carboxylate]				chromatographic logP [1, 5]: 2.54
